Laboratory results reported in US8569298B2, “Pyridine compounds” (Astrazeneca AB, priority 2008, dated 2013).

Each compound was assayed against T1, FAK enzyme (6 His tagged kinase domain, GenBank NP—722560) (Homo sapiens, UniProt Q05397) (assay: In vitro enzyme assay (a): sandwich ELISA of FAK tyrosine kinase activity on polyGAT peptide, TMB colorimetric endpoint). Conditions: in vitro Enzyme Assay test (a); ATP at Km; geometric mean of n > 1 measurements, values marked * tested once.
T1 construct: 6 His; made in house; host or cells: insect cell culture infected with baculovirus
T1 sequence (Q05397 422-680 limits assumed): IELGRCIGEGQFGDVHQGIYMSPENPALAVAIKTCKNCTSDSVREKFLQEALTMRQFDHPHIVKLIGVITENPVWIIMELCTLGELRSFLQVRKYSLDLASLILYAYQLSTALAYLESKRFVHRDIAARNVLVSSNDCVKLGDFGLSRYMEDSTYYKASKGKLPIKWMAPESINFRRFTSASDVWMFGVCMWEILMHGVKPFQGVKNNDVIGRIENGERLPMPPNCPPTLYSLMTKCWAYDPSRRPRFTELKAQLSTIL
Format: biochemical
Protocol: (a) In Vitro Enzyme Assay
A sandwich ELISA assay with a 3,3′,5,5′-tetramethyl benzidine (TMB) colorimetric endpoint was used in order to determine the level of effect of selected compounds on inhibition of FAK protein tyrosine kinase enzyme activity. A synthetic tyrosine containing peptide is coated onto a plastic surface, the level of phosphorylation of these tyrosine residues by the kinase enzyme in the presence of inhibitors is measured using an antibody that binds specifically to phosphorylated tyrosine residues. The amount of antibody bound to substrate is proportional to the level of enzyme catalysis.
Assay Protocol to Identify Inhibitors of Focal Adhesion Kinase (FAK).
A PlateMate Plus™ 384 automated liquid handling unit with a 100 μl disposable tip head was used to make all the non compound reagent additions and a Tecan 384PW plate washer with 384 head was used for all wash steps. Initially Matrix 384 well polystyrene plates (Cat #:4311) were coated with 40 μl/well of a 0.0375 mg/ml solution of synthetic poly peptide (polyGAT, Sigma Cat #:P3899) dissolved in phosphate buffered saline (PBS). Plates were stored overnight at 4° C. Immediately before use the coating solution was aspirated out and each well washed with 2×100 μl of PBS+0.05% Tween 20. To remove surplus phosphate, the wells were then washed with 2×100 μl 50 mM HEPES buffer pH 7.4. Plates were blotted dry before the addition of compounds. Compounds were tested over a 12 point dose range, a Labcyte Echo 550 was used to dispense compounds in nl volumes and back fill with DMSO. The final concentration of compound in the assay was dependent on the starting concentration of compound. For a 10 mM stock compound the final assay dose ranged from 100 μM down to […]. Control wells containing 120 nl DMSO (Max) or 120 nl of 10 mM staurosporine (LC Laboratories, Boston, USA Cat #: S-9300) (Min) were included in each plate. 10 ul of 5% dimethyl sulfoxide v/v (DMSO, Fisher Scientific) was added to each well immediately prior to addition of 10 μl of a co-factor solution containing 80 mM MgCl2 (Sigma Cat #: M1028); 80 mM MnCl2 (Sigma Cat #: M1787); ATP at a concentration calculated to enable the initial reaction velocity to progress at half the maximum velocity (Km for ATP) (Sigma Cat #:A7699). A final addition of 20 μl of enzyme solution containing 100 mM HEPES pH7.4; 0.2 mM sodium vanadate (Sigma Cat #:S6508); 0.2 g/l bovine serum albumin (BSA, Sigma Cat #: A7888); 0.2 mM dithioreitol (Sigma Cat #: 5545); 0.1% Triton X100 (Sigma Cat #:X100); FAK enzyme (20 μl/ml) was made to each well to start the assay running FAK enzyme was generated from an insect culture infected with baculo virus containing the DNA sequence encoding the 6 His tagged kinase domain (GenBank NP_722560).
Plates were left at room temperature for 25 minutes before 10 μl of 500 mM ethylenediaminetetraacetic acid (EDTA) was added to stop the assay and the wells were immediately washed 3×100 μl with PBS+0.05% Tween 20. A 4G10 antibody (Millipore Cat #: 16-105; 16-184) with a directly conjugated horse radish peroxidase (HRP) was used to detect the phosphorylation of the substrate by the FAK. 40 μl of PBS+0.05% Tween 20 containing 0.5% BSA and 0.1 μl/ml antibody was added to each well and left for 1 hour at room temperature to allow the antibody to bind. After this period the wells were again washed with 3×100 μl of PBS+0.05% Tween 20. TMB (Sigma Cat #: T2885) was used as a substrate for the HRP. Phosphate-citrate buffer was made up using capsules provided by Sigma (Cat #: P4922) following the manufacturers guidelines. TMB was dissolved at a concentration of 1 mg/ml in DMSO and let down to a final concentration of 0.05 mg/ml with the phosphor-citrate buffer. 40 μl of the TMB solution was added to each assay well and left for 30 minutes for the blue colour to develop. […]
Work on `CNC(=O)c1ccc(F)cc1Nc1cc(Nc2cn(C)nc2C)ncc1Cl` [Example 3.42, 2-[[5-chloro-2-[(1,3-dimethylpyrazol-4-yl)amino]-4-pyridyl]amino]-4-fluoro-N-methyl-benzamide] yielded an IC50 of 5 nM.
`CNC(=O)c1ccccc1Nc1cc(Nc2cnn(CC(=O)N3CCCC3)c2)ncc1F` [Example 4.01, 2-[[5-Fluoro-2-[[1-(2-oxo-2-pyrrolidin-1-yl-ethyl)pyrazol-4-yl]amino]-4-pyridyl]amino]-N-methyl-benzamide] gave an IC50 of 1510 nM.
`CNC(=O)c1ccccc1Nc1cc(Nc2cnn(CC(=O)N(C)C3CCN(C)CC3)c2)ncc1F` [Example 4.02, 2-[[5-fluoro-2-[[1-[2-[methyl-(1-methyl-4-piperidyl)amino]-2-oxo-ethyl]pyrazol-4-yl]amino]-4-pyridyl]amino]-N-methyl-benzamide] showed an IC50 of 1320 nM.
`CNC(=O)c1ccccc1Nc1cc(Nc2cnn(CC(=O)N(C)CCOC)c2)ncc1F` [Example 4.03] gave an IC50 of 2120 nM.
Compound `CNC(=O)c1ccccc1Nc1cc(Nc2cnn(CC(=O)N3CCCN(C)CC3)c2)ncc1F` [Example 4.04, 2-[[5-fluoro-2-[[1-[2-(4-methyl-1,4-diazepan-1-yl)-2-oxo-ethyl]pyrazol-4-yl]amino]-4-pyridyl]amino]-N-methyl-benzamide] has an IC50 of 967 nM.
For `CNC(=O)c1ccccc1Nc1cc(Nc2cnn(CC(=O)N3CCOCC3)c2)ncc1F` [Example 4.05, 2-[[5-fluoro-2-[[1-(2-morpholino-2-oxo-ethyl)pyrazol-4-yl]amino]-4-pyridyl]amino]-N-methyl-benzamide], the IC50 was 1300 nM.
In the case of `CNC(=O)c1ccccc1Nc1cc(Nc2cnn(CC(=O)N3CCC(N(C)C)CC3)c2)ncc1F` [Example 4.06, 2-[[2-[[1-[2-(4-dimethylamino-1-piperidyl)-2-oxo-ethyl]pyrazol-4-yl]amino]-5-fluoro-4-pyridyl]amino]-N-methyl-benzamide], the IC50 is reported as 1050 nM.
`CNC(=O)c1ccccc1Nc1cc(Nc2cnn(CC(=O)N3CCN(C)CC3)c2)ncc1F` [Example 4.07, 2-[[5-fluoro-2-[[1-[2-(4-methylpiperazin-1-yl)-2-oxo-ethyl]pyrazol-4-yl]amino]-4-pyridyl]amino]-N-methyl-benzamide] showed an IC50 of 577 nM.
In the case of `CNC(=O)c1ccccc1Nc1cc(Nc2cnn(C)c2)ncc1F` [Example 4.08, 2-[[5-Fluoro-2-[(1-methylpyrazol-4-yl)amino]-4-pyridyl]amino]-N-methyl-benzamide], the IC50 is reported as 2190 nM.
With `CNC(=O)c1ccccc1Nc1cc(Nc2cnn(C3CCOCC3)c2)ncc1F` [Example 4.09, 2-[[5-fluoro-2-[(1-tetrahydropyran-4-ylpyrazol-4-yl)amino]-4-pyridyl]amino]-N-methyl-benzamide] the IC50 was 3380 nM.
With `CNC(=O)c1ccccc1Nc1cc(Nc2cn(C)nc2C)ncc1F` [Example 4.10, 2-[[2-[(1,3-dimethylpyrazol-4-yl)amino]-5-fluoro-4-pyridyl]amino]-N-methyl-benzamide] the IC50 was 1770 nM.
`CNC(=O)c1ccccc1Nc1cc(Nc2cnn(C3CCN(C)CC3)c2)ncc1F` [Example 4.11, 2-[[5-fluoro-2-[[1-(1-methyl-4-piperidyl)pyrazol-4-yl]amino]-4-pyridyl]amino]-N-methyl-benzamide] gave an IC50 of 2080 nM.
With `Cc1nn(C)cc1Nc1cc(Nc2cccc3c2C(=O)N(C)CC3)c(F)cn1` [Example 4.12, 8-[[2-[(1,3-Dimethylpyrazol-4-yl)amino]-5-fluoro-4-pyridyl]amino]-2-methyl-3,4-dihydroisoquinolin-1-one] the IC50 was 121 nM.
In the case of `CN1CCc2cccc(Nc3cc(Nc4cnn([C@@H]5CCC(=O)NC5)c4)ncc3F)c2C1=O` [Example 4.13, 8-[[5-fluoro-2-[[1-[(3R)-6-oxopiperidin-3-yl]pyrazol-4-yl]amino]pyridin-4-yl]amino]-2-methyl-3,4-dihydroisoquinolin-1-one], the IC50 is reported as 1030 nM.
`CN1CCc2cccc(Nc3cc(Nc4cnn(C)c4)ncc3F)c2C1=O` [Example 4.14, 8-[[5-fluoro-2-[(1-methylpyrazol-4-yl)amino]-4-pyridyl]amino]-2-methyl-3,4-dihydroisoquinolin-1-one] gave an IC50 of 408 nM.
Work on `CN1CCc2cccc(Nc3cc(Nc4cnn(C5CCOCC5)c4)ncc3F)c2C1=O` [Example 4.15, 8-[[5-fluoro-2-[(1-tetrahydropyran-4-ylpyrazol-4-yl)amino]-4-pyridyl]amino]-2-methyl-3,4-dihydroisoquinolin-1-one] yielded an IC50 of 454 nM.
`CN1CCC(n2cc(Nc3cc(Nc4cccc5c4C(=O)N(C)CC5)c(F)cn3)cn2)CC1` [Example 4.16, 8[[5-fluoro-2-[[1-(1-methyl-4-piperidyl)pyrazol-4-yl]amino]-4-pyridyl]amino]-2-methyl-3,4-dihydroisoquinolin-1-one] showed an IC50 of 465 nM.
With `CN1CCc2cccc(Nc3cc(Nc4cnn(C5CCNCC5)c4)ncc3F)c2C1=O` [Example 4.17, 8-[[5-Fluoro-2-[[1-(4-piperidyl)pyrazol-4-yl]amino]-4-pyridyl]amino]-2-methyl-3,4-dihydroisoquinolin-1-one] the IC50 was 189 nM.
With `CN1CCc2cccc(Nc3cc(Nc4cnn(C5CCCNC5)c4)ncc3F)c2C1=O` (stereo not shown) [Example 4.18, 8-[[5-fluoro-2-[[1-(3-piperidyl)pyrazol-4-yl]amino]-4-pyridyl]amino]-2-methyl-3,4-dihydroisoquinolin-1-one] the IC50 was 676 nM.
`CN1CCc2cccc(Nc3cc(Nc4ccn(C5CCNCC5)n4)ncc3F)c2C1=O` [Example 4.19, 8-[[5-fluoro-2-[[1-(4-piperidyl)pyrazol-3-yl]amino]-4-pyridyl]amino]-2-methyl-3,4-dihydroisoquinolin-1-one] was tested, and the IC50 was 83 nM.
For `CN1CCc2cccc(Nc3cc(Nc4cnn(CC(=O)N5CCCC5)c4)ncc3F)c2C1=O` [Example 4.20, 8-[[5-Fluoro-2-[[1-(2-oxo-2-pyrrolidin-1-yl-ethyl)pyrazol-4-yl]amino]-4-pyridyl]amino]-2-methyl-3,4-dihydroisoquinolin-1-one], the IC50 was 304 nM.
`CN(C)CCCNC(=O)Cn1cc(Nc2cc(Nc3cccc4c3C(=O)N(C)CC4)c(F)cn2)cn1` [Example 4.21, N-(3-dimethylaminopropyl)-2-[4-[[5-fluoro-4-[(2-methyl-1-oxo-3,4-dihydroisoquinolin-8-yl)amino]-2-pyridyl]amino]pyrazol-1-yl]acetamide] gave an IC50 of 188 nM.
`CN(C)CCNC(=O)Cn1cc(Nc2cc(Nc3cccc4c3C(=O)N(C)CC4)c(F)cn2)cn1` [Example 4.22, N-(2-dimethylaminoethyl)-2-[4-[[5-fluoro-4-[(2-methyl-1-oxo-3,4-dihydroisoquinolin-8-yl)amino]-2-pyridyl]amino]pyrazol-1-yl]acetamide] was tested, and the IC50 was 364 nM.
`COCCNC(=O)Cn1cc(Nc2cc(Nc3cccc4c3C(=O)N(C)CC4)c(F)cn2)cn1` [Example 4.23, 2-[4-[[5-fluoro-4-[(2-methyl-1-oxo-3,4-dihydroisoquinolin-8-yl)amino]-2-pyridyl]amino]pyrazol-1-yl]-N-(2-methoxyethyl)acetamide] gave an IC50 of 449 nM.
With `COCCN(C)C(=O)Cn1cc(Nc2cc(Nc3cccc4c3C(=O)N(C)CC4)c(F)cn2)cn1` [Example 4.24, 2-[4-[[5-fluoro-4-[(2-methyl-1-oxo-3,4-dihydroisoquinolin-8-yl)amino]-2-pyridyl]amino]pyrazol-1-yl]-N-(2-methoxyethyl)-N-methyl-acetamide] the IC50 was 294 nM.
